Some results are limits rather than exact numbers.

The target of the test is T1, Human TRPC6 (Homo sapiens, UniProt Q9Y210).
T1 construct: expressed in transfected cells
T1 sequence (Q9Y210 1-931): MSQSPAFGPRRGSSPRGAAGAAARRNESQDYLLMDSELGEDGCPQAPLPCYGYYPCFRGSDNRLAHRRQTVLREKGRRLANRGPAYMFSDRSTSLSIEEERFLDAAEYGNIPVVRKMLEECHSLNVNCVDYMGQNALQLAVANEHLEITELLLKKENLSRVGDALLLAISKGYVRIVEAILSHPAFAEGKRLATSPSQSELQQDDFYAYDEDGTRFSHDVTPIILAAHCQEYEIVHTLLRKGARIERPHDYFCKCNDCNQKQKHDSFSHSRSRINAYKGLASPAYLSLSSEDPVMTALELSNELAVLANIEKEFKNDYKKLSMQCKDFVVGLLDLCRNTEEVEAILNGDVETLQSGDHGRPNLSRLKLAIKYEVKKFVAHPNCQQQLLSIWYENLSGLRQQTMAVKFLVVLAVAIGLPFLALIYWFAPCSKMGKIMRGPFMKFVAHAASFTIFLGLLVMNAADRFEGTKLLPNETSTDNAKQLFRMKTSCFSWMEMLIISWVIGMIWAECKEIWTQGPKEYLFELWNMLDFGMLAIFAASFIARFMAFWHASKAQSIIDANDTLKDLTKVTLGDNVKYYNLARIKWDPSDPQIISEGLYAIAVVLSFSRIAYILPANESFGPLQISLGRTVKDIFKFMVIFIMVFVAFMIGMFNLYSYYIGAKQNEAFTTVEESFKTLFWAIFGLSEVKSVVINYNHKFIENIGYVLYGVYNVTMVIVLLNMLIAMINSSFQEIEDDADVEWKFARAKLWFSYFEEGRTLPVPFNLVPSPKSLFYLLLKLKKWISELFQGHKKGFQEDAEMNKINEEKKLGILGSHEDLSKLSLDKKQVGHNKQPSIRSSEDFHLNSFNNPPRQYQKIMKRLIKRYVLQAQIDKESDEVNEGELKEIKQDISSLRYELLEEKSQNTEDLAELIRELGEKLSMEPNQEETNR
As to the kind of experiment: Evaluation of TRPC6 channel inhibitory activity (1), FLIPR Calcium 5 Assay Kit, OAG stimulation (Compound Nos. 1-1293). It is filed as cell-based. The settings on record: Human TRPC6 stably-expressing cells, OAG 30 μM, FLIPR Calcium 5 Assay Kit; read-out: Inhibitory activity (pIC50 class) (converted). In outline:
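Cells stably expressing human TRPC6, plated 24 h before, were loaded 30 min with Calcium 5 dye plus probenecid in HEPES-HBSS. Compound was added 20 min before OAG (30 μM final) and fluorescence tracked on FLIPR. Inhibition normalised to no-compound and no-compound/no-OAG wells; pIC50 from four-parameter fit, reported as +/++/+++ categories.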

Turning to `Cc1cc(Oc2cc(C#N)ccc2-c2ccc(OCCN)cn2)cc(N2CCOCC2)n1` [compound 350, 4-[5-(2-aminoethoxy)pyridin-2-yl]-3-(2-methyl-6-morpholin-4-ylpyridin-4-yl)oxybenzonitrile], the IC50 was 0.01 to 1 µM.
For `Cc1nc(Oc2cc(C#N)ccc2-n2cc([C@@H](O)CN)cn2)cc(-c2ccccc2C(F)(F)F)n1` [compound 351, 4-[4-[(1R)-2-amino-1-hydroxyethyl]pyrazol-1-yl]-3-[2-methyl-6-[2-(trifluoromethyl)phenyl]pyrimidin-4-yl]oxybenzonitrile] the value was 0.01 to 1 µM; for `Cc1nc(Oc2cc(C#N)ccc2-n2cc([C@@H](O)CN)cn2)cc(-c2ccccn2)n1` [compound 352, 4-[4-[(1R)-2-amino-1-hydroxyethyl]pyrazol-1-yl]-3-(2-methyl-6-pyridin-2-ylpyrimidin-4-yl)oxybenzonitrile], 0.01 to 1 µM.
For `Cc1nc(Oc2cc(C#N)ccc2-n2cc([C@@H](O)CN)cn2)cc(-c2cccc(C(F)(F)F)c2)n1` [compound 353, 4-[4-[(1R)-2-amino-1-hydroxyethyl]pyrazol-1-yl]-3-[2-methyl-6-[3-(trifluoromethyl)phenyl]pyrimidin-4-yl]oxybenzonitrile], the IC50 was 0.01 to 1 µM.
Then `Cc1nc(Oc2cc(C#N)ccc2-n2cc([C@H](O)CN)cn2)cc(-c2ccccc2C)n1` [compound 354, 4-[4-[(1S)-2-amino-1-hydroxyethyl]pyrazol-1-yl]-3-[2-methyl-6-(2-methylphenyl)pyrimidin-4-yl]oxybenzonitrile], with 0.01 to 1 µM; and `Cc1nc(Oc2cc(C#N)ccc2-n2cc([C@H](O)CN)cn2)cc(-c2ccccc2C(F)(F)F)n1` [compound 355, 4-[4-[(1S)-2-amino-1-hydroxyethyl]pyrazol-1-yl]-3-[2-methyl-6-[2-(trifluoromethyl)phenyl]pyrimidin-4-yl]oxybenzonitrile], with > 1 µM; and `Cc1nc(Oc2cc(C#N)ccc2-n2cc([C@H](O)CN)cn2)cc(-c2ccccn2)n1` [compound 356, 4-[4-[(1S)-2-amino-1-hydroxyethyl]pyrazol-1-yl]-3-(2-methyl-6-pyridin-2-ylpyrimidin-4-yl)oxybenzonitrile], with 0.01 to 1 µM.
With `Cc1nc(Oc2cc(C#N)ccc2-n2cc([C@H](O)CN)cn2)cc(-c2cccc(C(F)(F)F)c2)n1` [compound 357, 4-[4-[(1S)-2-amino-1-hydroxyethyl]pyrazol-1-yl]-3-[2-methyl-6-[3-(trifluoromethyl)phenyl]pyrimidin-4-yl]oxybenzonitrile], the IC50 is 0.01 to 1 µM.
Turning to `Cc1nc(Oc2cc(C#N)ccc2-n2cc([C@@H](O)CN)cn2)cc(-c2ccccc2C)n1` [compound 358, 4-[4-[(1R)-2-amino-1-hydroxyethyl]pyrazol-1-yl]-3-[2-methyl-6-(2-methylphenyl)pyrimidin-4-yl]oxybenzonitrile], the IC50 is 0.01 to 1 µM.
For `Cn1nc(C2CC2)c(F)c1Oc1cc(C#N)ccc1-c1ncc(CCN)cn1` [compound 359, 4-[5-(2-aminoethyl)pyrimidin-2-yl]-3-(5-cyclopropyl-4-fluoro-2-methylpyrazol-3-yl)oxybenzonitrile] the value was 0.01 to 1 µM.
For `Cn1nc(-c2ccccc2)c(F)c1Oc1cc(C#N)ccc1-c1ncc(CCN)cn1` [compound 360, 4-[5-(2-aminoethyl)pyrimidin-2-yl]-3-(4-fluoro-2-methyl-5-phenylpyrazol-3-yl)oxybenzonitrile] the value was < 0.01 µM; for `CCCc1cc(Oc2cc(C#N)ccc2-c2ccc(CN)cn2)n(C)n1` [compound 361, 4-[5-(aminomethyl)pyridin-2-yl]-3-(2-methyl-5-propylpyrazol-3-yl)oxybenzonitrile], < 0.01 µM.
With `CC(C)c1cc(Oc2cc(C#N)ccc2-c2ccc(CN)cn2)n(C)n1` [compound 362, 4-[5-(aminomethyl)pyridin-2-yl]-3-(2-methyl-5-propan-2-ylpyrazol-3-yl)oxybenzonitrile], the IC50 was < 0.01 µM.
For the compound `CCCc1cc(Oc2cc(C#N)ccc2-c2ncc(CN)cn2)n(C)n1` [compound 363, 4-[5-(aminomethyl)pyrimidin-2-yl]-3-(2-methyl-5-propylpyrazol-3-yl)oxybenzonitrile], the IC50 is < 0.01 µM.
As for `CC(C)c1cc(Oc2cc(C#N)ccc2-c2ncc(CN)cn2)n(C)n1` [compound 364, 4-[5-(aminomethyl)pyrimidin-2-yl]-3-(2-methyl-5-propan-2-ylpyrazol-3-yl)oxybenzonitrile], the IC50 was < 0.01 µM.
Then `Cn1nc(-c2ccccc2)cc1Oc1cc(C#N)ccc1-c1ccc([C@@H](O)CN)cn1` [compound 365, 4-[5-[(1R)-2-amino-1-hydroxyethyl]pyridin-2-yl]-3-(2-methyl-5-phenylpyrazol-3-yl)oxybenzonitrile], with < 0.01 µM; and `Cn1nc(-c2ccccc2)cc1Oc1cc(C#N)ccc1-c1ccc([C@H](O)CN)cn1` [compound 366, 4-[5-[(1S)-2-amino-1-hydroxyethyl]pyridin-2-yl]-3-(2-methyl-5-phenylpyrazol-3-yl)oxybenzonitrile], with < 0.01 µM; and `Cn1nc(C(C)(C)C)cc1Oc1cc(C#N)ccc1-c1ncc(CCN)cn1` [compound 367, 4-[5-(2-aminoethyl)pyrimidin-2-yl]-3-(5-tert-butyl-2-methylpyrazol-3-yl)oxybenzonitrile], with < 0.01 µM.
As to `CC(C)(C)n1nc(C2CC2)cc1Oc1cc(C#N)ccc1-c1ccc(C(O)CN)cn1` (stereo not shown) [compound 368, 4-[5-(2-amino-1-hydroxyethyl)pyridin-2-yl]-3-(2-tert-butyl-5-cyclopropylpyrazol-3-yl)oxybenzonitrile], the IC50 was 0.01 to 1 µM.
Regarding `CC(C)(C)n1nc(C2CC2)cc1Oc1cc(C#N)ccc1-c1ncc(CCN)cn1` [compound 369, 4-[5-(2-aminoethyl)pyrimidin-2-yl]-3-(2-tert-butyl-5-cyclopropylpyrazol-3-yl)oxybenzonitrile], the IC50 was 0.01 to 1 µM.
Regarding `N#Cc1ccc(-c2ccc(C(O)CN)cn2)c(Oc2cc(C3CC3)nn2CC(F)(F)F)c1` (stereo not shown) [compound 370, 4-[5-(2-amino-1-hydroxyethyl)pyridin-2-yl]-3-[5-cyclopropyl-2-(2,2,2-trifluoroethyl)pyrazol-3-yl]oxybenzonitrile], the IC50 was < 0.01 µM.
For `Cc1cc(Oc2cc(C#N)ccc2-c2ncc(CCN)cn2)cc(-c2ccccn2)n1` [compound 371, 4-[5-(2-aminoethyl)pyrimidin-2-yl]-3-(2-methyl-6-pyridin-2-ylpyridin-4-yl)oxybenzonitrile], the IC50 is < 0.01 µM.
For `Cn1nc(C2CC2)cc1Oc1cc(C#N)ccc1-c1ncc([C@@H](O)CN)cn1` [compound 372, 4-[5-[(1R)-2-amino-1-hydroxyethyl]pyrimidin-2-yl]-3-(5-cyclopropyl-2-methylpyrazol-3-yl)oxybenzonitrile] the value was < 0.01 µM.
For `Cn1nc(C2CC2)cc1Oc1cc(C#N)ccc1-c1ncc([C@H](O)CN)cn1` [compound 373, 4-[5-[(1S)-2-amino-1-hydroxyethyl]pyrimidin-2-yl]-3-(5 cyclopropyl-2-methylpyrazol-3-yl)oxybenzonitrile] the value was < 0.01 µM; for `Cn1nc(C2CC2)cc1Oc1cc(C#N)ccc1-c1ccc([C@@H](O)CN)cn1` [compound 374, 4-[5-[(1R)-2-amino-1-hydroxyethyl]pyridin-2-yl]-3-(5-cyclopropyl-2-methylpyrazol-3-yl)oxybenzonitrile], < 0.01 µM.
